# Patent publication US10047341B2, “Generation of keratinocytes from pluripotent stem cells and maintenance of keratinocyte cultures” (FUJIFILM Cellular Dynamics, Inc., priority 2014, dated 2018)
# “Also recorded” adds a separate entry of the source.
# Key:
# human ESC/iPSCs = experiment: iKCs derivation from human ESC/iPSCs: critical medium components; assay type: cell-based; settings: for K14 expression with different fibroblast growth factors: anti-K14 immunofluorescence
# [1] = tested on: primary keratinocytes cultured in KCM4; assay type: cell-based, human; settings: Passage 3 keratinocytes in KCM4, 1.5 mM Ca^2+ for 3 days
# Experimental: Keratinocytes were cultured in KCM4 and at 80%-90% confluence, cells were either treated with 1.5 mM Ca^2+ for 3 days or fixed (no calcium control). Cells were assessed by immunocytochemistry for expression of differentiation markers Kl, Loricrin, and Filaggrin using polyclonal rabbit antibodies (Covance).
# [2] = tested on: primary human keratinocytes; experiment: Morphology analysis of primary keratinocytes; assay type: cell-based
# [3] = tested on: primary human keratinocytes; experiment: Long-term culture of primary keratinocytes (population doubling); settings: for life span and stemness of primary keratinocytes in culture: niacinamide 3 mM, BMP4 0.5 ng/mL as components of KCM4; for keratinocyte growth: KCM1 with IGF or insulin 0-10 μg/mL
# Experimental: Keratinocytes were maintained in the indicated medium and passaged every 4-5 days (at ˜80% confluence). For passage, keratinocytes were incubated with a 0.1% Trypsin in Versene solution at 37° C. for 5 minutes. The trypsin was neutralized with 0.5 mg/mL of trypsin inhibitor. The cells were centrifuged at 1200 rpm for 4 min. Cells were counted with a Cellometer (Nexcelom). Cells (25,000-50,000) were plated per well of 6-well plates in the indicated keratinocyte culture media. Media was changed every other day.
# Cells were maintained by serial passage at ˜80% confluence until senescence. The total number of cell doublings for each passage was calculated using the following formula: 3.32 log(N/No). Where No refers to the number of cells plated at the beginning of each passage and N is the number of cells recovered at the end of each passage.
# [4] = tested on: primary human keratinocytes; experiment: Colony formation assay (CFA) of primary keratinocytes; assay type: cell-based; settings: for performance in CFA: KCM1 supplemented with either IGF or insulin, CFA in KCM1 (10 μg/mL insulin), 12 days
# Experimental: Cells were plated at low density (250 cells/well of a 6-well plate) and allowed to grow for 8-12 days. For FIGS. 7 and 8, cells were switched from the indicated culture medium to KCM1 (10 μg/mL insulin) at the beginning of the CFA. Keratinocytes were cultured in KCM1 (10 μg/mL insulin) for 12 days and colony size was measured. For FIGS. 9, 10, and 12, the CFAs were performed with the medium used for maintaining the keratinocytes. KCM4 needed to be supplemented with 5 μg/mL insulin to support colony growth. Colonies were allowed to grow for 8 days and colony size was measured. Following culture, plates were fixed and stained with Hoechst stain. The whole plate was imaged at 40× with an ImageXpress high content imager (Molecular Devices). The total number of colonies per well was counted and the size of each colony was measured using ImageJ software. Colony counts are shown in bar graphs where bar height represents the average number of colonies/well for each passage and the error bars represent the standard deviation. Colony sizes are presented in box and whisker plots where the center line represents the median, the box represents the inter-quartile range and the whiskers represent the 5-95 percentile. Data that fall outside this range are plotted individually.
# [5] = Passage 0, Day 14 differentiation culture, phase-contrast
# [6] = Passage 0, Day 14 differentiation culture
# [7] = KCM1, IGF and low concentrations of insulin (0.05 μg/mL and 0 μg/mL)
molecule,measurement,setting,value
"Cc1cccc(-c2[nH]ncc2-c2ccc3ncccc3n2)n1 [TGFRKi, TGFβ RI Kinase Inhibitor II, reference compound]",iKCs derivation when component is left out of the media,human ESC/iPSCs; [5],iKCs cannot be derived efficiently
[Ca+2] [calcium],"expression of differentiation markers Keratin 1, Loricrin, and Filaggrin",[1],Expression of all three differentiation markers was detected
same,differentiation at too high medium level of component,human ESC/iPSCs; 1 mM,simple epithelial progenitors would not further differentiate into keratinocytes
"NC(=O)c1cccnc1 [niacinamide, reference compound]",cell size,[2]; primary keratinocytes cultured in the indicated medium,made the cells smaller
same,differentiation when concentration of component is not sufficient,human ESC/iPSCs; [5],the differentiation process was incomplete
same,life span and stemness of primary keratinocytes in culture,[3],maintained the stemness of primary keratinocyte stem cells in culture
same,life span and stemness of primary keratinocytes in culture,[3]; listed as Niacinamide,extend the life span of primary keratinocytes in culture
"EGF: epidermal growth factor (NSDSECPLSHDGYCLHDGVCMYIEALDKYACNCVVGYIGERCQYRDLKWWELR; UniProt P01133 971-1023, looked up)",differentiation when concentration of component is not sufficient,human ESC/iPSCs; [5],the differentiation process was incomplete
FGF1: acidic fibroblast growth factor,K14 expression with different fibroblast growth factors,human ESC/iPSCs; [6],efficiently direct cells to express mature keratinocyte marker K14
FGF2: fibroblast growth factor FGF2,K14 expression with different fibroblast growth factors,human ESC/iPSCs; [6],did not promote homogeneous K14 expression
"IGF: IGF1 growth factor, medium supplement (10 ng/mL)",performance in CFA,[4],performed similarly
same,morphology at later passages (p6),[2]; [7],smaller and appear to be more tightly attached to each other
same,keratinocyte growth,[3],support human neonatal foreskin primary keratinocyte growth
VEGF,effect in CFA in later passages,[4]; VEGF 25 ng/mL added to KCM4,Positive effect
same,morphology after addition of VEGF,[2]; VEGF 25 ng/mL added to KCM4,did not show any morphological differences
same,proliferative potential in long-term culture,[3]; VEGF 25 ng/mL added to KCM4,increase the proliferative potential of keratinocytes; also recorded: increased the proliferative potential of primary keratinocytes
"insulin: insulin, medium supplement (0-10 μg/mL)",performance in CFA,[4],performed similarly
same,morphology at later passages (p6),[2]; [7],smaller and appear to be more tightly attached to each other
same,morphology at later passages (p6),"[2]; KCM1, high concentrations of insulin (1 μg/mL and higher)","many larger, differentiated cells"
same,keratinocyte growth,[3],grew well at all concentrations
same,keratinocyte growth,[3]; listed as Insulin,support human neonatal foreskin primary keratinocyte growth
